Our source for the IC50 and EC50 values is US9546153B2, “Bicyclic heterocycle substituted pyridyl compounds useful as kinase modulators” (BRISTOL-MYERS SQUIBB COMPANY, priority 2012, dated 2017).

Read-outs that look alike come from different tables or passages of the source.

The subject of assay [1] is TLR2 induced IL-6 in peripheral blood mononuclear cells (PBMCs). Nature of the assay: PBMC TLR2 Induced IL-6 Assay. The assay is classed as cell-based, human. To be noted: human PBMCs, 10 μg/ml lipoteichoic acid for 5 hours, IL-6 by ELISA; for IC50: value without asterisk, read-out: Cell IC50; for EC50: EC50 determinations are indicated with an asterisk, read-out: Cell EC50 (asterisk). The procedure, abridged:
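Human PBMCs (250000 cells/well) in RPMI with 10% heat-inactivated FCS pre-treated with compound for 30 min at 37° C, then stimulated 5 h with 10 μg/ml lipoteichoic acid. Supernatant IL-6 measured by ELISA and reported as IC50 or EC50.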
In general terms: In an ELISA, binding on a coated surface is turned into a signal by an enzyme label.

The target in assay [2] is IRAK4 (Homo sapiens (Human), UniProt Q9NWZ3). Nature of the assay: IRAK4 Inhibition Assay. The assay is classed as biochemical. The note with it: ATP 500 μM; IRAK4 0.6 nM; 60 min at room temperature. The protocol: The assays were performed in U-bottom 384-well plates. […] The reaction was initiated by the combination of IRAK4 with substrates and test compounds. The reaction was incubated at room temperature for 60 min. and terminated by adding 45 μL of 35 mM EDTA to each sample. The reaction mixture was analyzed on the Caliper LABCHIP® 3000 (Caliper, Hopkinton, Mass.) by electrophoretic separation of the fluorescent substrate and phosphorylated product.
IRAK4, sequence (Q9NWZ3 whole entry, species assumed): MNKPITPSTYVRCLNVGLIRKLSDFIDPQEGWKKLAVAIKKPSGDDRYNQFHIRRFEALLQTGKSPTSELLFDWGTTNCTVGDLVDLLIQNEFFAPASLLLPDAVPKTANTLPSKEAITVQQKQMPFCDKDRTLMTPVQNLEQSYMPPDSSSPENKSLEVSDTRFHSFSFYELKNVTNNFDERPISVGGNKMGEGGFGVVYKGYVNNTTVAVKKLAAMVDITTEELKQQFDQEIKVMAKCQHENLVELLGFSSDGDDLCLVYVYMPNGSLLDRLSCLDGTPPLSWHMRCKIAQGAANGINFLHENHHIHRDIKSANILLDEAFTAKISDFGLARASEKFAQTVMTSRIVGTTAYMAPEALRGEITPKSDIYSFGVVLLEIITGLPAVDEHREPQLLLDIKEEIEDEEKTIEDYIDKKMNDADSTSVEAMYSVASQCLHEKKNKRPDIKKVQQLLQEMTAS

`CC(C)(O)[C@H](F)CNC(=O)c1cnc(Nc2ccc3nonc3c2)cc1N[C@@H]1CCCC1F` (stereo partly drawn) [Example 357]: the figures for the IC50 in assay [1] and in assay [2] were 399 nM and 7.2 nM, respectively.

For `CC(O)([C@H](F)CNC(=O)c1cnc(Nc2ccc3ncsc3c2)cc1N[C@@H]1CCC[C@H]1O)C(F)(F)F` (stereo partly drawn) [Example 333], the IC50 (in general, the concentration at which inhibition is half-maximal) was 152 nM in assay [1] and 4.1 nM in assay [2].

For `CC(C)(O)[C@H](F)CNC(=O)c1cnc(Nc2ncc3ccc(F)cc3n2)cc1NC1CCOCC1` [Example 495], in assay [1] (Homo sapiens, PBMC, 5 h), the EC50 (usually the concentration at which the effect is half-maximal) came out at 447 nM. Besides, the IC50 in assay [2] was 11.9 nM.

Take `CC(C)(O)[C@H](F)CNC(=O)c1cnc(Nc2ccc3ncncc3c2)cc1N[C@@H]1CCC[C@H]1O` [Example 330]: the half-inhibitory concentration (IC50) was determined as 76 nM in assay [1] (Homo sapiens, PBMC, 5 h) and 2.2 nM in assay [2].

`CNC(=O)c1cnc(Nc2ccc3ncsc3c2)cc1NC1C2CC3CC1CC(O)(C3)C2` (single isomer, unassigned) [Example 147]: the IC50 stood at 507 nM in assay [1] and 17.4 nM in assay [2].

Consider `CC(C)Nc1cc(Nc2ccc3ncsc3c2)ncc1C(=O)NCC[C@@H](C)NC(=O)N(C)c1ccccc1` [Example 208], for which the IC50 turned out to be 647 nM in assay [1] (Homo sapiens, PBMC, 5 h) and 3.7 nM in assay [2].

`CC(=O)N[C@H]1CC[C@H](NC(=O)c2cnc(Nc3ccc4ncsc4n3)cc2NC2CCOCC2)CC1` [Example 514]: the EC50 in assay [1] (Homo sapiens, PBMC, 5 h) amounted to 26 nM. Moreover, the IC50 in assay [2] came to 1.8 nM.

For `CCNc1cc(Nc2cc3scnc3cc2F)ncc1C(=O)NC[C@@H](F)C(C)(C)O` [Example 516], the IC50 in assay [1] (Homo sapiens, PBMC, 5 h) worked out at 1200 nM; in assay [2] it was 3.1 nM.

As to `CNC(=O)c1cc(F)c(Nc2cc(Nc3ccc4ncsc4c3)ncc2C(=O)NC[C@@H](F)C(C)(C)O)cc1F` [Example 78], the IC50 in assay [1] (Homo sapiens, PBMC, 5 h) is 282 nM; in assay [2], 8.6 nM.

In the case of `CC(C)(O)[C@H](F)CNC(=O)c1cnc(Nc2ccc3ncsc3c2)cc1NCC1CCCO1` (stereo partly drawn) [Example 94], the IC50 in assay [1] is 339 nM; in assay [2], 13 nM.

As to `CC(C)(O)[C@H](F)CNC(=O)c1cnc(Nc2nc3scnc3cc2F)cc1NC1CCCOC1` (stereo partly drawn) [Example 473], the IC50 is 401 nM in assay [1] (Homo sapiens, PBMC, 5 h) and 1.5 nM in assay [2].

Consider `O=C(NCCC1(O)CCC1)c1cnc(Nc2ccc3ncsc3c2)cc1NC1CC1` [Example 10], for which the 50% inhibitory concentration (IC50) in assay [1] (Homo sapiens, PBMC, 5 h) turned out to be 115 nM; in assay [2], 5.1 nM.

In the case of `CC(C)Nc1cc(Nc2ccc3ncoc3c2)ncc1C(=O)NC[C@@H](F)C(O)C(C)C` (stereo partly drawn) [Example 24], the IC50 in assay [1] (Homo sapiens, PBMC, 5 h) amounted to 468 nM; in assay [2], 4 nM.

For the compound `CC(C)(O)[C@H](F)CNC(=O)c1cnc(Nc2ncc3ncccc3n2)cc1N[C@H]1CCC[C@@H]1F` [Example 445], the IC50 in assay [1] (Homo sapiens, PBMC, 5 h) is 106 nM; in assay [2], 3.8 nM.

For the compound `COc1ncnc2ccc(Nc3cc(NC4CCOCC4)c(C(=O)NC[C@@H](F)C(C)(C)O)cn3)cc12` [Example 124], the IC50 was found to be 420 nM in assay [1] (Homo sapiens, PBMC, 5 h) and 3.9 nM in assay [2].

Regarding `CC(C)Nc1cc(Nc2cc3nccnc3cc2F)ncc1C(=O)NC[C@@H](F)C(C)(C)O` [Example 501], the EC50 in assay [1] (Homo sapiens, PBMC, 5 h) stood at 209 nM. Besides, the IC50 in assay [2] was determined as 4.5 nM.

Consider `CC(O)([C@H](F)CNC(=O)c1cnc(Nc2ccc3ncsc3c2)cc1N[C@@H]1CCC[C@H]1O)C(F)(F)F` (stereo partly drawn) [Example 334], for which the IC50 in assay [1] stood at 321 nM; in assay [2], 4.5 nM.

On to `CC(C)Nc1cc(Nc2ccc3ncsc3c2)ncc1C(=O)NCC[C@@H](C)NC(=O)[C@@H]1CC[C@@H](F)C1` [Example 187], for which the IC50 in assay [1] (Homo sapiens, PBMC, 5 h) worked out at 324 nM; in assay [2] it was 2.7 nM.

Turning to `CC(C)Nc1cc(Nc2ccc3ncsc3c2)ncc1C(=O)NC12CCC(N)(CC1)CC2` [Example 223], the IC50 in assay [1] (Homo sapiens, PBMC, 5 h) turned out to be 238 nM; in assay [2], 4.2 nM.

As for `CC(C)(O)[C@H](F)CNC(=O)c1cnc(Nc2ccn3nccc3n2)cc1NC1CCCC1F` (stereo partly drawn) [Example 245], the IC50 in assay [1] (Homo sapiens, PBMC, 5 h) turned out to be 390 nM; in assay [2], 2.8 nM.

With `Cc1nc2ccc(Nc3cc(NC4CCCC4F)c(C(=O)NC[C@@H](F)C(C)(C)O)cn3)cc2s1` (stereo partly drawn) [Example 350], the figures for the IC50 in assay [1] and in assay [2] were 148 nM and 2.7 nM, respectively.

Regarding `CC(C)(O)[C@H](F)CNC(=O)c1cnc(Nc2nc3ccnn3cc2F)cc1NC1CCC(F)C1` (stereo partly drawn) [Example 408], the IC50 in assay [1] turned out to be 209 nM; in assay [2], 1.9 nM.

With `CC(C)Nc1cc(Nc2ccc3ncsc3c2)ncc1C(=O)N[C@H]1CC[C@H](C(=O)NC2(C#N)CC2)C1` [Example 222], the IC50 in assay [1] (Homo sapiens, PBMC, 5 h) worked out at 692 nM; in assay [2], 9.9 nM.

Turning to `CC(C)(O)[C@H](F)CNC(=O)c1cnc(Nc2ccc3ncsc3c2)cc1NCCN1CCOCC1` [Example 164], the IC50 in assay [1] (Homo sapiens, PBMC, 5 h) was determined as 388 nM; in assay [2], 34.9 nM.

In the case of `CNC(=O)[C@H]1CC[C@H](NC(=O)c2cnc(Nc3ccc4ncsc4c3)cc2NC(C)C)C1` [Example 221], the concentration for half-maximal inhibition (IC50) amounted to 462 nM in assay [1] (Homo sapiens, PBMC, 5 h) and 10.5 nM in assay [2].

In the case of `CC(C)(O)[C@H](F)CNC(=O)c1cnc(Nc2nc3scnc3cc2F)cc1NC1CCOCC1F` (stereo partly drawn) [Example 470], the 50% inhibitory concentration (IC50) in assay [1] was determined as 635 nM; in assay [2], 3.6 nM.

`CC(C)Nc1cc(Nc2ccc3ncsc3c2)ncc1C(=O)NCC[C@H](C)NC(=O)CC(C)(C)O` [Example 179]: the concentration for half-maximal inhibition (IC50) in assay [1] (Homo sapiens, PBMC, 5 h) was 532 nM; in assay [2] it was 16.2 nM.

Regarding `CC(C)(O)[C@H](F)CNC(=O)c1cnc(Nc2ccc3nonc3c2)cc1NCC(F)(F)F` [Example 100], the IC50 in assay [1] (Homo sapiens, PBMC, 5 h) stood at 830 nM; in assay [2] it was 21.7 nM.

Turning to `CC(C)(O)[C@H](F)CNC(=O)c1cnc(Nc2ccc3ncccc3n2)cc1NC1CCCC1F` (stereo partly drawn) [Example 404], the IC50 in assay [1] (Homo sapiens, PBMC, 5 h) was 1010 nM; in assay [2], 7.8 nM.

Consider `CC(C)Nc1cc(Nc2ccc3ncccc3n2)ncc1C(=O)NC[C@@H](F)C(C)(C)O` [Example 123], for which the IC50 amounted to 271 nM in assay [1] (Homo sapiens, PBMC, 5 h) and 3.6 nM in assay [2].

Turning to `CC(C)(O)[C@H](F)CNC(=O)c1cnc(Nc2ccc3ncsc3c2)cc1N[C@@H](c1ccccc1)[C@H](O)CO` [Example 49], the 50% inhibitory concentration (IC50) in assay [1] (Homo sapiens, PBMC, 5 h) stood at 444 nM; in assay [2], 3.4 nM.

For `CC(C)(O)[C@H](F)CNC(=O)c1cnc(Nc2nc3ccnn3cc2F)cc1NC1CC1` [Example 368], the IC50 in assay [1] came to 445 nM; in assay [2] it was 5.3 nM.

For the compound `O=C(NCCN1CCCC1)c1cnc(Nc2ccc3ncsc3c2)cc1NC1CCCC1` [Example 151], the concentration for half-maximal inhibition (IC50) in assay [1] (Homo sapiens, PBMC, 5 h) stood at 191 nM; in assay [2], 4.2 nM.

As to `CC(C)(O)[C@H](F)CNC(=O)c1cnc(Nc2nc3scnc3cc2F)cc1NC1CCCOC1` (stereo partly drawn) [Example 474], the IC50 in assay [1] was 204 nM; in assay [2] it was 2.8 nM.

Regarding `COc1ncnc2ccc(Nc3cc(NC4CC4)c(C(=O)NC[C@@H](F)C(C)(C)O)cn3)cc12` [Example 128], the IC50 in assay [1] (Homo sapiens, PBMC, 5 h) amounted to 391 nM; in assay [2], 10.4 nM.

For `CCNc1cc(Nc2ccc3ncsc3n2)ncc1C(=O)NC[C@@H](F)C(C)(C)O` [Example 311], the IC50 in assay [1] (Homo sapiens, PBMC, 5 h) is 81 nM; in assay [2], 2.4 nM.

For the compound `CC(C)(O)[C@H](F)CNC(=O)c1cnc(Nc2ccc3ncsc3c2)cc1Nc1ncc(CO)s1` [Example 416], the IC50 in assay [1] (Homo sapiens, PBMC, 5 h) stood at 255 nM; in assay [2], 1.8 nM.

Turning to `CC(C)(O)[C@H](F)CNC(=O)c1cnc(Nc2nc3ccnn3cc2F)cc1NC1CCCCC1(F)F` (stereo partly drawn) [Example 496], the half-maximal effective concentration (EC50) in assay [1] was 91 nM. The IC50 in assay [2] worked out at 6.4 nM.

On to `CC(C)(O)C(F)(F)CNC(=O)c1cnc(Nc2ccc3nccn3n2)cc1NC1CC1` [Example 283], for which the IC50 was found to be 417 nM in assay [1] (Homo sapiens, PBMC, 5 h) and 9.6 nM in assay [2].
